Source: US7691843B2, “N-hydroxyamide derivatives possessing antibacterial activity” (Pfizer Inc., priority 2002, dated 2010)

Assays:
Type in all cases: in vivo
[1] = system: Proteus vulgaris ATCC 13315; assay: Efficacy in murine Proteus vulgaris septicemia; details: ATCC13315; ICR mice inoculated intraperitoneally with Proteus vulgaris ATCC 13315 at 1×10^8 CFU; administered intravenously 1 hour after inoculation (doses in mg/kg); mortality recorded 7 days; non-linear regression
Description: (§1) Efficacy studies were performed in an P. vulgaris murine septicemia model according to models published elsewhere (Goldstein, B. P., G. Candiani, T. M. Arain, G. Romano, I. Ciciliato, M. Berti, M. Abbondi, R. Scotti, M. Mainini, F. Ripamonti, and et al. 1995. Antimicrobial activity of MDL 63,246, a new semisynthetic glycopeptide antibiotic Antimicrob Agents Chemother. 39:1580-1588; Misiek, M., T. A. Pursiano, F. Leitner, and K. E. Price 1973. Microbiological properties of a new cephalosporin, BL-S 339: 7-(phenylacetimidoyl-aminoacetamido)-3-(2-methyl-1,3,4-thiadiazol-5-ylthio methyl)ceph-3-em-4-carboxylic acid Antimicrob Agents Chemother. 3:40-48).
(§2) The compound was dissolved in 10% DMSO, 0.1% Tween 80, 0.9% NaCl solution and administered intravenously at 10 ml/kg at 1 hour after bacterial inoculation. The compound was administered at 20, 10, 5, 2.5, and 1.25 mg/kg. A control with ampicillin was included in the evaluation.
(§3) Male or female ICR mice weighing 24±2 g from MDS Pharma Services were used for the evaluation. Food and water was given ad libitum. Groups of 6 mice weighing 24±g were used for the experiment. Mice were inoculated intraperitoneally with Proteus vulgaris ATCC 13315 at 1×10^8 CFU in 0.5 ml of Brain Heart Infusion Broth (Difco) containing 5% mucin (Sigma). Mortality was recorded once daily for 7 days following bacterial inoculation.

[2] = system: Klebsiella pneumoniae ATCC 10031; assay: Efficacy in murine Klebsiella pneumoniae septicemia; details: ATCC10031; ICR mice inoculated intraperitoneally with Klebsiella pneumoniae ATCC 10031 at 3×10^7 CFU; administered intravenously 1 hour after inoculation (doses in mg/kg); mortality recorded 7 days; non-linear regression
Description: as §1, with “K. pneumoniae” for “P. vulgaris”
as §2
as §3, with “Klebsiella pneumoniae” for “Proteus vulgaris”, “10031” for “13315”, “3×10^7” for “1×10^8”

[3] = system: Escherichia coli ATCC 25922; assay: Efficacy in murine E. coli septicemia; details: ATCC25922; ICR mice inoculated intraperitoneally with Escherichia coli ATCC 25922 at 4×10^4 CFU; administered intravenously 1 hour after inoculation (doses in mg/kg); mortality recorded 7 days; non-linear regression
Description: as §1, with “E. coli” for “P. vulgaris”
The compound was dissolved in 10% DMSO, 0.1% Tween 80, 0.9% NaCl solution and administered intravenously at 10 ml/kg at 1 hour after bacterial inoculation. The compound was administered at 80, 40, 20, 5, 2.5, and 1.25 mg/kg. A control with ampicillin was included in the evaluation.
as §3, with “22±2” for “24±2”, “22+g” for “24±g”, “Escherichia coli” for “Proteus vulgaris”, “25922” for “13315”, “4×10^4” for “1×10^8”

For `CC1(C)S[C@@H]2[C@H](NC(=O)[C@H](N)c3ccccc3)C(=O)N2[C@H]1C(=O)O` [ampicillin], the ED50 [1] was 29.7 mg/kg, the ED50 [2] was 6.8 mg/kg and the ED50 [3] was 14.1 mg/kg.
